This note sets out measurements from the METLIN SMRT retention time set (Domingo-Almenara et al. 2019).

This data set is described as follows: gradient 5% acetonitrile 3 min, to 50% in 2 min, to 85% in 15 min, held 3 min, 100 µL/min. The settings on record: column: Zorbax Extend-C18 2.1 x 50 mm; eluents: water / acetonitrile, 0.1% formic acid. The procedure, abridged: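 Values are retention times taken from adduct peaks that software picked and an analyst inspected. The pure standards were run as mixtures of ~100 molecules on HPLC linked to a quadrupole time-of-flight mass spectrometer, in positive and negative ionization mode. A Zorbax Extend-C18 column (2.1 × 50 mm, 1.8 μm) was used at 100 μL/min with water and acetonitrile, each including 0.1% formic acid.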
Regarding `O=C(NCc1cccc(C(F)(F)F)c1)c1c[nH]c2ncccc12`, the RP-LC retention time was determined as 760 s.
In turn, `Cc1noc(C)c1-c1ccc(S(=O)(=O)N2CCc3ccccc32)cc1` came in with an RP-LC retention time of 1040 s.
Next, `Cc1ccccc1C(=O)N1CCN(CC(F)(F)F)CC1`: 752 s; `COc1ccc(-n2ccc(=O)c(-c3nc(-c4ccc(OC(C)C)cc4)no3)n2)cc1`: 982 s; `O=C(CC(=O)N1CCN(C2CCCCC2)CC1)Nc1ccc2nc3n(c(=O)c2c1)CCCCC3`: 554 s.
Next, `NS(=O)(=O)c1ccc(NC(=O)CN2C(=O)c3ccccc3C2=O)cc1`: 623 s.
The molecule `Cc1ccc(-c2cc3c(N4CCC(C(=O)NC(C)C)CC4)nccn3n2)c(C)c1` came in with an RP-LC retention time of 769 s.
On to `Cc1c(C(=O)NC2CC2)c(C)n(C)c1-c1ccccc1`, for which the RP-LC retention time came to 830 s.
Regarding `Cc1ccc(Nc2c(-c3ccc(N4CCOCC4)cc3)nc3cc(C)ccn23)cc1`, the RP-LC retention time was determined as 769 s.
As to `CCOC(=O)c1ccccc1NC(=O)c1nc(SC)ncc1Cl`, the RP-LC retention time stood at 1240 s.
Next, `CCOC(=O)N1CCN(C(=O)CSc2ccc(-c3sc(C)nc3C)nn2)CC1`: 632 s; `NC(=O)C1CCN(C(=O)c2nnn(-c3ccccc3Cl)c2-c2ccncc2)CC1`: 603 s; `CN(C)C[C@@H]1CN(S(C)(=O)=O)C[C@H]1NC(=O)CC1=CCCCC1`: 602 s.
Consider `Cc1cc(C)cc(C(=O)N2CCCC(C(=O)NCCN3CCOCC3)C2)c1` (stereo unspecified), for which the RP-LC retention time was 619 s.
Next, `CC1CCN(CC[C@H]2CCCN2S(=O)(=O)c2cccc(O)c2)CC1`: 646 s.
`COc1ccc(-c2nc(C)cc(C)c2CNC(=O)c2ccc3c(c2)OCO3)cc1` registered an RP-LC retention time of 632 s.
On to `Cc1cccc(C)c1NC(=O)N1CCN(CCn2c(C(C)C)nc3cccnc32)CC1`, for which the RP-LC retention time is 602 s.
For `OC(COc1cccc2ccccc12)CN1CCN(c2ccc(Cl)cc2)CC1` (stereo unspecified), the RP-LC retention time is 856 s.
As for `COc1nc2ccccc2nc1N1CCCC(C(=O)N2CCC(C)CC2)C1` (stereo unspecified), the RP-LC retention time came out at 1110 s.
`COc1ccc(Cl)cc1N1CC(c2nc(-c3ccccn3)no2)CC1=O` (stereo unspecified) gave an RP-LC retention time of 724 s.
Next, `O=C(Nc1nc(-c2ccc(F)cc2)cs1)C1CC1`: 884 s; `CCCc1noc(-c2cccnc2N2CCCN(Cc3ccccc3C)CC2)n1`: 740 s; `NC(=O)c1ccc2c(c1)n(Cc1ccccc1)c(=O)c1ccnn12`: 674 s.
Next, `O=C(CCn1cnc2cc(-c3noc(Cc4cccc(F)c4)n3)ccc21)N1CCCC1`: 726 s.
As to `COc1ccc(-c2nc3cccnc3n2C2CCN(C(=O)Nc3cccc(OC)c3)C2)cc1` (stereo unspecified), the RP-LC retention time was found to be 746 s.
Next, `COc1ccccc1CNC(=O)C1CCCN(c2ncnc3c2oc2ccccc23)C1` (stereo unspecified): 746 s; `CCOc1ccccc1-c1noc(-c2nc(C)no2)n1`: 986 s.
The molecule `Cc1ccccc1CNC(=O)CCc1nnc2c3cc(-c4ccc(F)cc4)nn3ccn12` came in with an RP-LC retention time of 811 s.
With `COc1ncccc1CNC(=O)c1cccn1C`, the RP-LC retention time is 704 s.
For the molecule `CCCCN(C(=O)c1noc2c1CC(C)CC2)C1CCN(C(C)=O)CC1` (stereo unspecified), the RP-LC retention time stood at 895 s.
Regarding `O=C(Cn1nc2n(c1=O)CCCC2)N1CCN(c2ccccc2F)CC1`, the RP-LC retention time was found to be 679 s.
Regarding `Cn1c(=O)oc2ccc(C(=O)Nc3nc4ccccc4s3)cc21`, the RP-LC retention time is 843 s.
In turn, `CN(CCc1ccccn1)c1ccc2c(c1)C(=O)c1ccccc1-2` gave an RP-LC retention time of 662 s.
`COC(=O)c1ccc(NC(=O)C(=O)NCC2CCN(C(=O)c3ccccc3F)CC2)cc1` displayed an RP-LC retention time of 751 s.
In turn, `O=C(Nc1nc(-c2ccccc2)cs1)Oc1ccccc1` returned an RP-LC retention time of 1030 s.
Next, `O=C(NCCCOc1cccc2cccnc12)c1cc(-c2ccccc2)on1`: 617 s.
`COc1ccc(C(=O)N2CCc3cc(-c4csc(C5CC5)n4)ccc32)cn1` gave an RP-LC retention time of 1070 s.
As for `CCOc1ccc(C(=O)NC(C(=O)Nc2nc3ccccc3[nH]2)C(C)CC)cc1` (stereo unspecified), the RP-LC retention time was 750 s.
Consider `Cc1ccc(CN2CCN(CC(=O)Nc3cccc(C(F)(F)F)c3)C(=O)C2=O)cc1`, for which the RP-LC retention time was determined as 939 s.
The molecule `CCOCCOC1CCN(C(=O)c2cccs2)CC1` showed an RP-LC retention time of 725 s.
With `CC(=O)N1CCN(S(=O)(=O)c2cccc(C(=O)NCc3cccnc3)c2)CC1`, the RP-LC retention time turned out to be 533 s.
The molecule `CCc1ccccc1S(=O)(=O)N(C)CC1CCOC1` (stereo unspecified) registered an RP-LC retention time of 850 s.
In turn, `Cc1nc2cc3c(cc2n1CC(=O)NCC1CCCO1)OCCO3` (stereo unspecified) yielded an RP-LC retention time of 567 s.
In turn, `COc1cc(Cl)c(C)cc1NC(=O)CSc1ccc(N2CCCC(C(=O)NC3CC3)C2)nn1` (stereo unspecified) had an RP-LC retention time of 774 s.
Take `CC(C)c1noc(-c2ccnc(-n3cnc(C(=O)NC4CCCC4)c3)c2)n1`: the RP-LC retention time was found to be 693 s.
Molecule `COC(=O)c1ccc(-c2nc3cnccn3c2Nc2ccc(OC)cc2)cc1` gave an RP-LC retention time of 826 s.
The molecule `CC(C)N1CCn2cc(S(=O)(=O)NCc3ccc(F)cc3Cl)cc2C1=O` displayed an RP-LC retention time of 788 s.
As to `CN1C[C@@H]2C(=O)N(CCc3ccccc3)C(=O)[C@@H]2C1`, the RP-LC retention time was 605 s.
Next, `Cc1oc(C2CCN(S(=O)(=O)c3ccc(C(F)(F)F)cc3)CC2)nc1C(=O)N(C)C`: 900 s.
For the molecule `Oc1ccc(-c2nc3ncccn3c2Nc2ccc3c(c2)OCCO3)cc1`, the RP-LC retention time amounted to 610 s.
Next, `CCn1nccc1-c1cccc(-c2noc(C3CC(=O)N(c4ccc(C)cc4)C3)n2)c1` (stereo unspecified): 1010 s; `O=C(NCCc1ccco1)C1CCCN(c2nc3ccccc3n(Cc3ccccc3)c2=O)C1` (stereo unspecified): 1090 s.
In turn, `Cc1ccc(Cn2cc(-c3ccncc3)cc2C(=O)NCC2CCCO2)cc1` (stereo unspecified) had an RP-LC retention time of 654 s.
Next, `Cc1cc(=O)n(CC(=O)N2CCc3ccccc32)c(N2CCc3ccccc3C2)n1`: 825 s.
For `CCOc1ncccc1CNC(=O)C1CCC1`, the RP-LC retention time turned out to be 696 s.
Consider `COc1ccc(C)cc1Nc1c(-c2nc(C)no2)cnc2nc(C)ccc12`, for which the RP-LC retention time was 764 s.
Next, `COC(=O)c1c(C)[nH]c(C(=O)N2CCCC(C(=O)NCc3ccc4c(c3)OCO4)C2)c1C` (stereo unspecified): 720 s.
`CCOc1ccc(N2C(=O)N(c3ccc(Cl)c(Cl)c3)C3CS(=O)(=O)CC32)cc1` (stereo unspecified) returned an RP-LC retention time of 915 s.
Consider `Cc1ccc(-c2noc(Cn3cnc4c(cnn4-c4ccc(C(C)C)cc4)c3=O)n2)cc1C`, for which the RP-LC retention time is 1330 s.
Next, `COC(=O)CC1=CC(SCC(=O)N2CCC(C)CC2)=Nc2ccccc2N1`: 1000 s; `Cn1cc(CCN2CCN(S(=O)(=O)c3ccccc3F)CC2)c2cccnc21`: 608 s; `CCc1ccccc1NC(=O)Cn1nc2c(Oc3cc(C)cc(C)c3)nccn2c1=O`: 946 s.
For `O=C(Nc1ccc2c(c1)OCCO2)c1cc(-c2ccccn2)n[nH]1`, the RP-LC retention time is 648 s.
`CCCn1nnc(NCc2ccc(-c3cccc(Cl)c3)o2)n1` had an RP-LC retention time of 1090 s.
`CCOc1ccc(NC(=O)Cn2nc3cc(C)nc(-c4cccc(Cl)c4)n3c2=O)cc1` displayed an RP-LC retention time of 971 s.
As for `Cc1cc(C)n(CC(=O)N2CCCn3ccnc3C2c2cnn(C)c2)n1` (stereo unspecified), the RP-LC retention time was 556 s.
Turning to `COc1ccc(Cl)cc1NC(=O)Nc1ccc2c(c1)C(=O)NCC2`, the RP-LC retention time was found to be 748 s.
With `COc1ccc(-n2c(=O)n(C)c(=O)c3cc(C(=O)NC(C)c4ccccc4)cnc32)cc1` (stereo unspecified), the RP-LC retention time is 871 s.
Molecule `COc1ccc(NS(=O)(=O)c2ccc(-c3nnc(C4CCC4)o3)o2)cc1Cl` registered an RP-LC retention time of 936 s.
Next, `CCn1c(=O)sc2cc(S(=O)(=O)N3CCC(C(=O)NC4CCCC4)CC3)ccc21`: 845 s; `O=C(c1ccc2c(c1)OCO2)N1CCN(Cc2nc(C3CC3)cs2)CC1`: 611 s; `Cc1ccc(NC(=O)N2CCC(N3CCN(Cc4ccccn4)C(=O)C3=O)CC2)cc1Cl`: 658 s.
Next, `CCOC(=O)c1noc2nc(C)nc(NCCc3ccc(Cl)cc3)c12`: 1210 s; `Cc1cc(C)c2c(N3CCOCC3)nc(C(=O)N3CCC(C)CC3)nc2n1`: 626 s; `COc1ccc(-c2c(C)noc2NC(C)=O)cc1S(=O)(=O)N1CCCC1`: 673 s.
`CC(C)c1ccc(S(=O)(=O)N2CCC(C(=O)NCCc3csc(-c4ccccc4)n3)CC2)cc1` returned an RP-LC retention time of 1080 s.
In turn, `CCCc1nc(NCc2cccnc2)ncc1C(=O)O` displayed an RP-LC retention time of 569 s.
As for `CCOC(=O)C1CCN(Cc2nc3nc(C)cc(N4CCC(C)CC4)n3n2)CC1`, the RP-LC retention time was found to be 642 s.
The molecule `Cc1ccc2nsnc2c1S(=O)(=O)NCCc1c(C)[nH]c2ccccc12` yielded an RP-LC retention time of 948 s.
`O=C1Cc2cc(NC(=O)NC(c3ccccc3)c3ccccc3)ccc2N1` gave an RP-LC retention time of 706 s.
The molecule `CC(C)CC(=O)Nc1ccc(-n2cnc(C(=O)N3CCN(c4ccccc4)CC3)c2)nc1` showed an RP-LC retention time of 819 s.
